{"source": "patent US11666559B2", "about": "“Spiro-lactam compounds, process and uses thereof” (UNIVERSIDADE DE COIMBRA, priority 2017, dated 2023)", "key": {"[1]": {"tested_on": "Bacillus subtillis ATCC 6633", "assay": "Anti-bacterial activity, agar diffusion method", "assay_type": "cell-based, Bacillus subtilis", "conditions": "at the concentration of 1 mg/ml", "experimental": "(§1) In an embodiment, anti-bacterial activity of the compounds now disclosed was determined according to CLSI guidelines. The following bacteria were used: reference strains E. coli ATCC 10536, Staphylococcus aureus ATCC 6538, Bacillus subtilis ATCC 6633 and Enterococcus faecalis ATCC 29212; clinical strains of E. coli and Pseudomonas aeruginosa isolated in our laboratory; and strains of Lactobacillus rhamnosus and Lactobacillus plantarum also isolated in our laboratory. The Minimum Inhibitory Concentration (MIC) was determined by the agar diffusion method, in plates of Mueller-Hinton agar or Rogosa agar (for Lactobacilli). Briefly, 10^8 cfu/ml bacterial suspensions were prepared in sterile water and spread in the culture media. Sterile disks containing different concentrations of P3 were placed on the inoculated surface. Plates were incubated at 37° C. for 24 h or 48 h. Lactobacilli were incubated at microaerophilic conditions. A negative control made of sterile water was used. Disks of amoxicillin and imipenem were used as positive controls."}, "[2]": {"tested_on": "Escherichia coli (Clinical strain)", "assay": "Anti-bacterial activity, agar diffusion method", "assay_type": "cell-based", "conditions": "at the concentration of 1 mg/ml", "experimental": "as §1"}, "[3]": {"tested_on": "Pseudomonas aeruginosa (Clinical strain)", "assay": "Anti-bacterial activity, agar diffusion method", "assay_type": "cell-based", "conditions": "at the concentration of 1 mg/ml", "experimental": "as §1"}, "[4]": {"tested_on": "Escherichia coli ATCC 10536", "assay": "Anti-bacterial activity, agar diffusion method", "assay_type": "cell-based", "conditions": "at the concentration of 1 mg/ml", "experimental": "as §1"}, "[5]": {"tested_on": "Staphylococcus aureus ATCC 6538", "assay": "Anti-bacterial activity, agar diffusion method", "assay_type": "cell-based", "conditions": "at the concentration of 1 mg/ml", "experimental": "as §1"}, "[6]": {"tested_on": "Lactobacillus plantarum", "assay": "Anti-bacterial activity, agar diffusion method", "assay_type": "cell-based", "conditions": "at the concentration of 1 mg/ml", "experimental": "as §1"}, "[7]": {"tested_on": "Lactobacillus rhamnosus", "assay": "Anti-bacterial activity, agar diffusion method", "assay_type": "cell-based", "conditions": "at the concentration of 1 mg/ml", "experimental": "as §1"}, "[8]": {"tested_on": "Enterococcus faecalis ATCC 29212", "assay": "Anti-bacterial activity, agar diffusion method", "assay_type": "cell-based", "conditions": "at the concentration of 1 mg/ml", "experimental": "as §1"}, "[9]": {"assay": "Acute toxicity assay in Wistar rats", "experimental": "Wistar rats (n=5) were inoculated IP with different doses of BSS-593 and effects on liver, renal and lipid homeostasis were assessed by dosing different biochemical parameters 48 h after inoculation. ALT, AST and LDH were determined as markers of liver function and serum level of creatinine were determined as marker of renal function. Serum levels of total cholesterol, low-density cholesterol (LDL), high-density cholesterol (HDL) and triglycerides were measured to evaluate the effect of the drugs on lipid homeostasis. Results were expressed as the means with their standard errors and were compared using a one-factorial ANOVA test, followed by a Bonferroni's multi-comparison post hoc test.\nIn an embodiment, the acute toxicity assay of spiro-β-lactam BSS-593 was carried out. […] Control animals were administered with sterile saline (1 mL/kg; n=4). […] After blood collection animals were necropsied to identify macroscopic signs of organ injury.\nIn an embodiment, an acute toxicity assay was carried out. Female Wistar (220-250 g) rats were randomly divided in 4 groups. […] A fourth group of control animals was administered with sterile saline (B. Braun, Portugal) (1 mL/kg; n=4). Animals received the test drug via the intraperitoneal route and were monitored regularly for visible stress or toxicity signs such as death. All rats were anesthetized with sodium pentobarbital (Eutasil, 60 mg/kg i.p; Sanofi VeterinAria, Alges, Portugal) prior to intracardiac puncture for blood collection. […] Blood was collected into a serum SST gel and clot activator tube (Becton Dickinson, Le Pont de Claix, France) and was centrifuged (1000×g for 10 min at room temperature) to separate serum. Serum was analyzed within 24 h on a laboratory bench Clinical Chemistry Analyser c111 (Roche Diagnostics, Lda). Uver injury was assessed by measuring the rise in the serum levels of alanine aminotransferase (ALT, a specific marker for hepatic parenchymal injury), aspartate aminotransferase (AST, a nonspecific marker for hepatic injury) and lactate dehydrogenase (LDH, a marker of nonspecific cellular injury). Serum levels of creatinine was determined as marker of renal injury. Serum levels of total cholesterol, low-density cholesterol (LDL), high-density cholesterol (HDL) and triglycerides were also measured to evaluate the effect of the drugs on lipid homeostasis. Results were expressed as the means with their standard errors and were compared using a one-factorial ANOVA test, followed by a Bonferroni's multi-comparison post hoc test. A P value <0.05 was considered to be statistically significant."}, "[10]": {"conditions": "single intraperitoneal dose 0.1, 1 or 10 mg/kg, 48 h"}}, "note": "Entries after “also recorded” stand apart in the source; their conditions may differ.", "data": [{"compound": "CC1(C)S[C@H]2N(C(=O)[C@]23CC=C(C(=O)OCc2ccccc2)[C@@H]3C(=O)c2ccccc2)[C@H]1C(=O)OC(c1ccccc1)c1ccccc1", "note": "[BSS-730A]", "values": [{"measurement": "inhibitory activity", "setting": "[1]", "result": "no inhibitory activity"}, {"measurement": "inhibitory activity", "setting": "[2]", "result": "no inhibitory activity"}, {"measurement": "inhibitory activity", "setting": "[3]", "result": "no inhibitory activity"}, {"measurement": "inhibitory activity", "setting": "[4]", "result": "no inhibitory activity"}, {"measurement": "inhibitory activity", "setting": "[5]", "result": "no inhibitory activity"}, {"measurement": "inhibitory activity", "setting": "[6]", "result": "no inhibitory activity"}, {"measurement": "inhibitory activity", "setting": "[7]", "result": "no inhibitory activity"}, {"measurement": "inhibitory activity", "setting": "[8]", "result": "no inhibitory activity"}]}, {"compound": "COC(=O)C1=C[C@@]2(N=N1)C(=O)N1[C@@H](C(=O)O)C(C)(C)S[C@@H]12", "note": "[BSS-593, (2,3′R,5R)-5′-(methoxycarbonyl)-3,3-dimethyl-7-oxo-4-thia-1-azaspiro[bicyclo[3.2.0]heptane-6,3′-pyrazole]-2-carboxylic acid]", "values": [{"measurement": "time to anaesthesia (sodium pentobarbital) between treated and control animals", "setting": "[9]; intraperitoneal 0.1, 1 or 10 mg/kg, reflects apparent CNS effects", "result": "no significant differences"}, {"measurement": "abnormal behavior or signs of toxicity", "setting": "[9]; [10]", "result": "No abnormal behavior or signs of abnormal toxicity were noticed"}, {"measurement": "biochemical markers of liver function, kidney function and general cell injury (ALT, AST, creatinine, LDH in the blood) vs control animals", "setting": "[9]; [10]", "result": "no significant differences; also recorded: does not induce liver and renal injury"}, {"measurement": "blood lipid profiles (cholesterol, LDL, HDL and TG)", "setting": "[9]; [10]", "result": "no changes; also recorded: does not alter lipid metabolism"}, {"measurement": "macroscopic signs of organ injury at necropsy", "setting": "[9]; single intraperitoneal dose 0.1, 1 or 10 mg/kg, after blood collection", "result": "No significant differences"}, {"measurement": "animal survival rate", "setting": "[9]; single intraperitoneal dose 0.1, 1 or 10 mg/kg, test period of 48 h", "result": 100, "unit": "%"}, {"measurement": "inhibitory activity", "setting": "[1]", "result": "no inhibitory activity"}, {"measurement": "inhibitory activity", "setting": "[2]", "result": "no inhibitory activity"}, {"measurement": "inhibitory activity", "setting": "[3]", "result": "no inhibitory activity"}, {"measurement": "inhibitory activity", "setting": "[4]", "result": "no inhibitory activity"}, {"measurement": "inhibitory activity", "setting": "[5]", "result": "no inhibitory activity"}, {"measurement": "inhibitory activity", "setting": "[6]", "result": "no inhibitory activity"}, {"measurement": "inhibitory activity", "setting": "[7]", "result": "no inhibitory activity"}, {"measurement": "inhibitory activity", "setting": "[8]", "result": "no inhibitory activity"}]}]}
